Experimental data: patent US7704995B2 (Exelixis, Inc., priority 2003, dated 2010)
Read-outs that look alike come from different tables or passages of the source.

Target: T1, Chk1 (Homo sapiens, UniProt O14757)
T1 construct: purchased Upstate Biotechnology
T1 sequence (O14757 1-476): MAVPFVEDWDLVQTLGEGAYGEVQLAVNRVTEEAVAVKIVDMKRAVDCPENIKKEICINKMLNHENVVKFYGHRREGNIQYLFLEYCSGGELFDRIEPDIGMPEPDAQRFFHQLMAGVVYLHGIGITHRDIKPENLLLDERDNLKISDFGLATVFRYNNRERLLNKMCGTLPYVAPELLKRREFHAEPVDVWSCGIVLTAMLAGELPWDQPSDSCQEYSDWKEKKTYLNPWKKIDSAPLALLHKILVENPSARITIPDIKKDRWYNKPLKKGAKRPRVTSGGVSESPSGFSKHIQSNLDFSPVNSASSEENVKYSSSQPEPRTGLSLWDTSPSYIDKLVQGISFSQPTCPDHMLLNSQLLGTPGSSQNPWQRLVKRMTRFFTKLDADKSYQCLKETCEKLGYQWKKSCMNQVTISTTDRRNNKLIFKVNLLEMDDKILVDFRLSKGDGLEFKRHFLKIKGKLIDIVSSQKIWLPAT
Assay: Chk1 kinase assay: incorporation of γ-33P ATP into immobilized myelin basic protein
Format: biochemical
Details: read-out: Chk1 IC50
Outline: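 Enzyme activity is measured as γ-33P transfer from ATP onto immobilized MBP over 1 h at room temperature, with Chk1 at 10 nM/10 μM unlabeled ATP and Chk2 at 20 nM/30 μM unlabeled ATP. Compounds are tested in 1% DMSO.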

[1] = Table 11, Chk1 only, class symbols A-D

IC50 (Table 11, Chk1 only) [µM] | IC50 [µM] | Structure (SMILES) | also measured
1 to 10 |  | Nc1ncc(-c2cccc(CN[C@H]3CCc4ccccc43)c2)nc1C(=O)NCCCN1CCCC1 [Example 598, 3-amino-6-(3-{[(1S)-2,3-dihydro-1H-inden-1-ylamino]methyl}phenyl)-N-(3-pyrrolidin-1-ylpropyl)pyrazine-2-carboxamide] | 
 | 0.05 to 1 | CNC(=O)c1nc(-c2cccc(C(=O)NCC3CCCC3)c2)cnc1N [Example 253, 3-amino-6-(3-{[(cyclopentylmethyl)amino]carbonyl}phenyl)-N-methylpyrazine-2-carboxamide] | 
 |  | COc1ccc(CC(=O)Nc2cccc(-c3cnc(N)c(C(=O)N[C@H]4CCCNC4)n3)c2)cc1 [Example 977, 3-amino-6-[3-({[4-(methyloxy)phenyl]acetyl}amino)phenyl]-N-[(3S)-piperidin-3-yl]pyrazine-2-carboxamide] | IC50 [1]: < 0.05 µM
 | 0.05 to 1 | CNC(=O)c1nc(-c2cccc(CNCc3ccccc3N3CCCCC3)c2)cnc1N [Example 404, 3-amino-N-methyl-6-[3-({[(2-piperidin-1-ylphenyl)methyl]amino}methyl)phenyl]pyrazine-2-carboxamide] | 
 | 0.05 to 1 | CNC(=O)c1nc(-c2cccc(CNCc3cccc(-c4csnn4)c3)c2)cnc1N [Example 423, 3-amino-N-methyl-6-{3-[({[3-(1,2,3-thiadiazol-4-yl)phenyl]methyl}amino)methyl]phenyl}pyrazine-2-carboxamide] | 
 | 1 to 10 | CNC(=O)c1nc(-c2cccc(NS(C)(=O)=O)c2)cnc1N [Example 82, 3-amino-N-methyl-6-{3-[(methylsulfonyl)amino]phenyl}pyrazine-2-carboxamide] | 
0.05 to 1 |  | Nc1ncc(-c2cccc(C(=O)NC3Cc4ccccc4C3)c2)nc1C(=O)N[C@H]1CCNC1 [Example 745, 3-amino-6-{3-[(2,3-dihydro-1H-inden-2-ylamino)carbonyl]phenyl}-N-[(3S)-pyrrolidin-3-yl]pyrazine-2-carboxamide] | 
≥ 10 |  | C/C(=N\Nc1nc2ccccc2s1)c1nc(-c2cccc(C(=O)NCc3ccccc3)c2)cnc1N [Example 601, 3-{5-amino-6-[(1E)-N-1,3-benzothiazol-2-ylethanehydrazonoyl]pyrazin-2-yl}-N-(phenylmethyl)benzamide] | 
 |  | Nc1ncc(-c2cccc(CNS(=O)(=O)c3ccccc3OC(F)(F)F)c2)nc1C(=O)N[C@H]1CCCNC1 [Example 917, 3-amino-N-[(3S)-piperidin-3-yl]-6-(3-{[({2-[(trifluoromethyl)oxy]phenyl}sulfonyl)amino]methyl}phenyl)pyrazine-2-carboxamide] | IC50 [1]: 0.05 to 1 µM
0.05 to 1 |  | CC(C)(C)OC(=O)N1CC[C@H](NC(=O)c2nc(-c3cccc(C(=O)NC4Cc5ccccc5C4)c3)cnc2N)C1 [Example 742, 1,1-dimethylethyl (3S)-3-{[(3-amino-6-{3-[(2,3-dihydro-1H-inden-2-ylamino)carbonyl]phenyl}pyrazin-2-yl)carbonyl]amino}pyrrolidine-1-carboxylate] | 
≥ 10 |  | C/C(=N\Nc1ccc(OC(F)(F)F)cc1)c1nc(-c2cccc(C(=O)NCc3ccccc3)c2)cnc1N [Example 634, 3-[5-amino-6-((1E)-N-{4-[(trifluoromethyl)oxy]phenyl}ethanehydrazonoyl)pyrazin-2-yl]-N-(phenylmethyl)benzamide] | 
< 0.05 |  | Nc1ncc(-c2cccc(CO)c2)nc1-c1nc(-c2ccncc2)n[nH]1 [Example 606, {3-[5-amino-6-(3-pyridin-4-yl-1H-1,2,4-triazol-5-yl)pyrazin-2-yl]phenyl}methanol] | 
 |  | Nc1ncc(-c2cccc(C(=O)N[C@H]3CCCN3)c2)nc1C(=O)N[C@H]1CCCNC1 [Example 928, 3-amino-N-[(3S)-piperidin-3-yl]-6-(3-{[(2S)-pyrrolidin-2-ylamino]carbonyl}phenyl)pyrazine-2-carboxamide] | IC50 [1]: < 0.05 µM
 | < 0.05 | CNC(=O)c1nc(-c2cccc(CNCc3cc(Cl)cc(Cl)c3)c2)cnc1N [Example 409, 3-amino-6-[3-({[(3,5-dichlorophenyl)methyl]amino}methyl)phenyl]-N-methylpyrazine-2-carboxamide] | 
 | 0.05 to 1 | CNC(=O)c1nc(-c2cccc(CNCc3ccc(Oc4ccccc4)cc3)c2)cnc1N [Example 397, 3-amino-N-methyl-6-{3-[({[4-(phenyloxy)phenyl]methyl}amino)methyl]phenyl}pyrazine-2-carboxamide] | 
 |  | Cc1ccccc1CNC(=O)c1cccc(-c2cnc(N)c(C(=O)N[C@H]3CCCNC3)n2)c1 [Example 1035, 3-amino-6-[3-({[(2-methylphenyl)methyl]amino}carbonyl)phenyl]-N-[(3S)-piperidin-3-yl]pyrazine-2-carboxamide] | IC50 [1]: < 0.05 µM
1 to 10 |  | C/C(=N\Nc1ccccc1)c1nc(-c2cccc(C(=O)NCc3ccccc3)c2)cnc1N [Example 641, 3-{5-amino-6-[(1E)-N-phenylethanehydrazonoyl]pyrazin-2-yl}-N-(phenylmethyl)benzamide] | 
 | 0.05 to 1 | CNC(=O)c1nc(-c2cccc(-c3nc4ccccc4[nH]3)c2)cnc1N [Example 407, 3-amino-6-[3-(1H-benzimidazol-2-yl)phenyl]-N-methylpyrazine-2-carboxamide] | 
 | 0.05 to 1 | CNC(=O)c1nc(-c2cccc(CNC(=O)c3ccc(Cl)cc3)c2)cnc1N [Example 309, 3-amino-6-[3-({[(4-chlorophenyl)carbonyl]amino}methyl)phenyl]-N-methylpyrazine-2-carboxamide] | 
 |  | Nc1ncc(-c2cccc(C(=O)NCc3cc(F)c(F)c(F)c3)c2)nc1C(=O)N[C@H]1CCCNC1 [Example 1028, 3-amino-N-[(3S)-piperidin-3-yl]-6-[3-({[(3,4,5-trifluorophenyl)methyl]amino}carbonyl)phenyl]pyrazine-2-carboxamide] | IC50 [1]: < 0.05 µM
 |  | Nc1ncc(-c2cccc(C(=O)NCc3c(F)cccc3F)c2)nc1-c1nc([C@H]2CCCNC2)n[nH]1 [Example 827, 3-(5-amino-6-{3-[(3S)-piperidin-3-yl]-1H-1,2,4-triazol-5-yl}pyrazin-2-yl)-N-[(2,6-difluorophenyl)methyl]benzamide] | IC50 [1]: 0.05 to 1 µM
< 0.05 |  | CNC(=O)c1nc(-c2cccc(CNC3CCc4cc(-c5ccco5)ccc43)c2)cnc1N (centres unmarked) [Example 472, 3-amino-6-(3-{[(5-furan-2-yl-2,3-dihydro-1H-inden-1-yl)amino]methyl}phenyl)-N-methylpyrazine-2-carboxamide] | 
 |  | Nc1ncc(-c2cccc(NC(=O)Cc3ccccc3F)c2)nc1C(=O)N[C@H]1CCCNC1 [Example 898, 3-amino-6-(3-{[(2-fluorophenyl)acetyl]amino}phenyl)-N-[(3S)-piperidin-3-yl]pyrazine-2-carboxamide] | IC50 [1]: < 0.05 µM
0.05 to 1 |  | CNC(=O)c1nc(-c2cccc(CNC3CCc4ccc(-c5cccs5)cc43)c2)cnc1N (centres unmarked) [Example 495, 3-amino-N-methyl-6-[3-({[6-(2-thienyl)-2,3-dihydro-1H-inden-1-yl]amino}methyl)phenyl]pyrazine-2-carboxamide] | 
 |  | Nc1ncc(-c2cccc(C(=O)NCc3c(F)cccc3Cl)c2)nc1-c1nc([C@H]2CCCNC2)n[nH]1 [Example 828, 3-(5-amino-6-{3-[(3S)-piperidin-3-yl]-1H-1,2,4-triazol-5-yl}pyrazin-2-yl)-N-[(2-chloro-6-fluorophenyl)methyl]benzamide] | IC50 [1]: 0.05 to 1 µM
 | 0.05 to 1 | CNC(=O)c1nc(-c2cccc(C(=O)N[C@H]3CCc4ccccc43)c2)cnc1N [Example 97, 3-amino-6-(3-{[(1S)-2,3-dihydro-1H-inden-1-ylamino]carbonyl}phenyl)-N-methylpyrazine-2-carboxamide] | 
 | 0.05 to 1 | CNC(=O)c1nc(-c2cccc(C(=O)NCc3ccccc3F)c2)cnc1N [Example 289, 3-amino-6-[3-({[(2-fluorophenyl)methyl]amino}carbonyl)phenyl]-N-methylpyrazine-2-carboxamide] | 
0.05 to 1 |  | CNC(=O)c1nc(-c2cccc(C(=O)NNc3ccccc3F)c2)cnc1N [Example 432, 3-amino-6-(3-{[2-(2-fluorophenyl)hydrazino]carbonyl}phenyl)-N-methylpyrazine-2-carboxamide] | 
0.05 to 1 |  | CNC(=O)c1nc(-c2cccc(CNC3CCc4c(Cl)cc(Cl)cc43)c2)cnc1N (centres unmarked) [Example 486, 3-amino-6-(3-{[(4,6-dichloro-2,3-dihydro-1H-inden-1-yl)amino]methyl}phenyl)-N-methylpyrazine-2-carboxamide] | 
